We go through 19 compounds from PubChem BioAssay (NCI).

Holding throughout (test): inhibition of tumour cell growth, NCI panel, 48 h
In assay [1] the test system is T-47D breast.
Assay [2] deals with HL-60(TB) leukemia.
In assay [3] the test system is HCC-2998 colon.
In assay [4] the test system is NCI-H226 lung.
Assay [5] relates to SN12C renal.
Assay [6] concerns ACHN renal.
The test system of assay [7] is MALME-3M melanoma.
Assay [8] has as its system SNB-19 CNS.
Assay [9] deals with KM12 colon.
The subject of assay [10] is RPMI-8226 leukemia.

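Cells were grown in 96-well plates and exposed to each compound for 48 hours at five concentrations; endpoints were interpolated linearly between bracketing concentrations, or set to the highest concentration if not reached. GI50: concentration for 50% inhibition of growth. TGI is the concentration that stops growth completely.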

On to `O=[N+]([O-])c1ccc(N/N=C/CC(O)(C(F)(F)F)C(F)(F)F)c([N+](=O)[O-])c1`, for which the TGI in assay [1], in assay [2], in [3], in assay [4], in assay [5] and in [6] was above 10 µM throughout. Further, the TGI in assay [7], in [8], in [9] and in assay [10] was above 10 µM each time.
As to `C=C1c2nc3ccccc3n2C=C(c2ccc(C)cc2)N1c1ccc(C)cc1`, the TGI in assay [1] is above 100 µM; in assay [2], 64.4 µM; in assay [3] it was above 72.9 µM; in assay [4], above 44.4 µM; in assay [5] it was above 100 µM; in assay [6], above 100 µM. In addition, the TGI is above 100 µM in assay [7], above 100 µM in [8], above 82.2 µM in assay [9] and above 89.8 µM in assay [10].
For the compound `CSC1C(=O)Nc2ccc3ccccc3c21` (centres undefined), the TGI was 29.4 µM in assay [1]; 10.8 µM in assay [2]; above 100 µM in [3]; above 100 µM in assay [4]; 41.9 µM in assay [5]; 92.4 µM in assay [6]. The TGI was above 100 µM in [7], above 100 µM in assay [8], 35.5 µM in [9] and 60.7 µM in [10].
For the compound `CCCC(O)c1cn(C(NC(=O)c2ccccc2)P(=O)(OCC)OCC)nn1` (centres undefined), the TGI in [1], in [2], in assay [3], in assay [4], in assay [5] and in assay [6] was above 100 µM each time. For the same compound, the TGI in assay [7], in assay [8], in assay [9] and in [10] was above 100 µM throughout.
With `C=CC(OC(C)=O)c1ccc(OC(=O)C(C)C)c(OC)c1` (centres undefined), the TGI was 21.9 µM in assay [1]; above 23.6 µM in [2]; 29.5 µM in [3]; 39.8 µM in [4]; 15.2 µM in assay [5]; 10.4 µM in assay [6]. Also, the TGI in assay [7] came out at 4.43 µM; in [8] it was 24.6 µM; in [9] it was 7.2 µM; in [10], 4.28 µM.
`O=c1oc2ccc([N+](=O)[O-])cc2c(Nc2ccc3c(c2)Sc2ccccc2O3)c1[N+](=O)[O-]`: the TGI was above 100 µM in assay [1]; 46.8 µM in assay [2]; 26.4 µM in assay [3]; 35.8 µM in assay [4]; 51.2 µM in assay [5]; 72 µM in assay [6]. Also, the TGI was above 100 µM in assay [7], 36.2 µM in [8], 49.8 µM in assay [9] and 54.2 µM in assay [10].
As to `COC(=O)/C=C\C(C#N)(C#N)N=Cc1ccccc1`, the TGI in assay [1] amounted to 3.88 µM; in assay [2] it was 6.42 µM; in [3], 35.1 µM; in assay [4] it was 21 µM; in assay [5], 26.6 µM; in [6] it was 6.35 µM. Besides, the TGI in assay [7] is 4.88 µM; in [8], above 58.4 µM; in assay [9] it was 33.4 µM; in assay [10], 2.88 µM.
Consider `CSc1c(C#N)c(N)nc2c(N=Nc3ccc(Br)cc3)c(N)nn12`, for which the TGI stood at 4.74 µM in assay [1]; 9.1 µM in assay [2]; 26 µM in assay [3]; 39.5 µM in [4]; 13.4 µM in assay [5]; 18.5 µM in assay [6]. Moreover, the TGI in assay [7] came out at 24 µM; in [8] it was 69.6 µM; in assay [9], 23.6 µM; in assay [10], 54.7 µM.
`O=c1cc(NNc2cccc(F)c2)[nH]c(=O)[nH]1`: the TGI is 31.7 µM in assay [1]; 44.6 µM in assay [2]; above 100 µM in [3]; above 100 µM in assay [4]; above 100 µM in assay [5]; above 100 µM in [6]. In addition, the TGI was 34.9 µM in [7], above 100 µM in assay [8], above 100 µM in assay [9] and 47.4 µM in [10].
Take `CCO[C@@]1(COCc2ccccc2)OC(=O)C[C@@H]1N1C(=O)OC[C@@H]1c1ccccc1`: the TGI in [1], in assay [2], in assay [3], in assay [4], in assay [5] and in [6] was above 100 µM in each case. The TGI in [7], in assay [8], in assay [9] and in [10] was above 100 µM each time.
Regarding `Cc1ccc(C(=O)N(Cc2ccccc2)Cc2ccccc2)cc1N=NN(C)C`, the TGI in assay [1] was 75 µM; in [2] it was 61.9 µM; in [3], 96 µM; in [4], 56.2 µM; in assay [5], above 81.1 µM; in assay [6], above 92.7 µM. Also, the TGI in [7] is 40.6 µM; in [8], above 100 µM; in [9] it was above 86.5 µM; in assay [10], above 100 µM.
Turning to `Nc1ccccc1.[C-]#[O+].[C-]#[O+].[C-]#[O+].[C-]#[O+].[C-]#[O+].[Cr]`, the GI50 was 2.62 µM in assay [1]; 1.68 µM in [2]; 6.17 µM in assay [3]; above 10 µM in [4]; 3.9 µM in [5]; 4.84 µM in assay [6]. The GI50 was 4.72 µM in assay [7], 6.89 µM in assay [8], 7.97 µM in [9] and 3.39 µM in [10]. Further, the TGI is above 10 µM in assay [1]; 6.94 µM in assay [2]; above 10 µM in [3]; above 10 µM in assay [4]; above 10 µM in assay [5]; above 10 µM in assay [6]. In addition, the TGI in assay [7], in [8], in assay [9] and in assay [10] was above 10 µM throughout.
With `CCOC(=O)c1sc2nc(SC)nc3c2c1NCN3c1ccc(F)c(F)c1`, the TGI was above 100 µM in assay [1]; above 100 µM in assay [2]; above 64 µM in assay [3]; above 79.9 µM in [4]; above 100 µM in [5]; above 100 µM in assay [6]. The TGI in [7] was above 49.1 µM; in assay [8], above 83.2 µM; in assay [9], above 86.5 µM; in [10], above 100 µM.
Regarding `CCCCCc1cc2cc3c(c(O)c2c(=O)[nH]1)C1(CCC3)C(O)=c2c(=O)c3c(=O)cc(OC)c(=O)c=3c(=O)c2=C1O` (centres undefined), the TGI in assay [1] came out at 2.76 µM; in [2] it was 1.24 µM; in assay [3], 4.42 µM; in [4], 4.21 µM; in [5] it was 3.91 µM; in assay [6] it was 2.25 µM. For the same compound, the TGI is 2.95 µM in [7], 3.86 µM in assay [8], 4.22 µM in assay [9] and above 18.7 µM in [10].
As for `COc1cc2cc(C(=O)N3CC(CCl)c4c3cc(NC(=O)OCc3ccc([N+](=O)[O-])cc3)c3ccccc43)[nH]c2c(OC)c1OC` (centres undefined), the TGI in [1] was above 100 µM; in assay [2] it was above 38.5 µM; in assay [3], 16.3 µM; in [4], above 100 µM; in assay [5], above 100 µM; in assay [6] it was above 34.5 µM. The TGI in assay [7] was above 100 µM; in assay [8] it was above 100 µM; in assay [9], above 74.2 µM; in assay [10] it was above 100 µM.
On to `CC1=NN(C(=O)CC(=O)Nc2ccccc2Cl)C(=O)C1N=Nc1ccc(S(=O)(=O)c2ccc(N=NC3C(=O)N(C(=O)CC(=O)Nc4ccccc4Cl)N=C3C)cc2)cc1` (centres undefined), for which the TGI in [1], in [2], in assay [3], in [4], in assay [5] and in assay [6] was above 100 µM each time. Moreover, the TGI in [7], in [8], in assay [9] and in assay [10] was above 100 µM throughout.
For `COc1cc(C2c3cc4c(cc3OC(Nc3ccccc3)C2C)OCO4)cc(OC)c1O` (centres undefined), the TGI in [1] was above 100 µM; in assay [2], 4.34 µM; in assay [3] it was 14.6 µM; in [4], 39.8 µM; in assay [5], 21.2 µM; in assay [7], 21.6 µM. For the same compound, the TGI is above 100 µM in assay [8], 38.7 µM in [9] and 9.86 µM in [10].
As for `O=c1sc2c(s1)-c1sc(=O)sc1SS2`, the TGI in [1] was above 100 µM; in assay [2], above 100 µM; in [3] it was above 100 µM; in assay [4] it was above 73.1 µM; in assay [5], above 100 µM; in [6], above 100 µM. The TGI in assay [7], in assay [8], in assay [9] and in assay [10] was above 100 µM in each case.
Take `COc1ccc(/C=C/C(=O)c2cc(C(C)(C)C)c(O)c(C(C)(C)C)c2)cc1OC`: the TGI in assay [1] amounted to 24.4 µM; in assay [2] it was 17.6 µM; in [3], 7.74 µM; in assay [4] it was 43 µM; in assay [5], 65.5 µM; in [6], 99.3 µM. For the same compound, the TGI is above 100 µM in assay [7], 64.1 µM in [8], above 59.4 µM in assay [9] and 12.8 µM in assay [10].
